System: recombinant NL4-3 virus (NLRluc, Renilla luciferase in nef, Gag P373S)
Test: HIV cell culture assay (Renilla luciferase reporter virus in MT-2 cells)
Format: cell-based
Conditions: Renilla, NL43, read-out: 10% FBS EC50, 10% FBS, class symbols A/B/C
How it was run: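 MT-2 cells infected with NL4-3 reporter virus (Renilla luciferase replacing part of nef, Gag P373S), made by 293T transfection and titered in MT-2 cells by luciferase. Infection runs 4–5 days with serial inhibitor dilutions. Antiviral activity read as Renilla luciferase activity (Dual Luciferase reagents).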

Row | SMILES | EC50 [µM]
1 | CC1(C)C(c2ccc(C(=O)O)cc2)=CC[C@@]2(C)CN(C(=O)c3ccccc3-c3nc4c(ccc5ccccc54)o3)CC=C12 [Example A324] | < 0.5
2 | CC1(C)C(c2ccc(C(=O)O)cc2)=CC[C@]2(C)CN(C(=O)c3ccccc3-c3nc4cc(Cl)ccc4o3)CC=C12 [Example A332] | < 0.5
3 | COc1ccc2nc(-c3ccccc3C(=O)N3CC=C4C(C)(C)C(c5ccc(C(=O)O)cc5)=CC[C@]4(C)C3)oc2c1 [Example A334] | < 0.5
4 | CC1(C)C(c2ccc(C(=O)O)cc2)=CC[C@]2(C)CN(C(=O)c3ccccc3-c3nc4cc(F)c(F)cc4o3)CC=C12 [Example A338] | 0.5 to 3
5 | CC1(C)C(c2ccc(C(=O)O)cc2)=CC[C@]2(C)CN(c3cc(N)cc(-c4nnn(CCN5CCS(=O)(=O)CC5)n4)c3)CC=C12 [Example B3, (S)-4-(2-(3-amino-5-(2-(2-(1,1-dioxidothiomorpholino)ethyl)-2H-tetrazol-5-yl)phenyl)-5,5,8a-trimethyl-1,2,3,5,8,8a-hexahydroisoquinolin-6-yl)benzoic acid] | > 3
6 | CC1(C)C(c2ccc(C(=O)O)cc2)=CC[C@]2(C)CN(c3ccc(-c4nnn(CCN5CCS(=O)(=O)CC5)n4)cc3)CC=C12 [Example B5] | > 3
7 | CC1(C)C(c2ccc(C(=O)O)cc2)=CC[C@]2(C)CN(c3cc(F)cc(-c4nn[nH]n4)c3)CC=C12 [Example B7] | > 3
8 | CC1(C)C(c2ccc(C(=O)O)cc2)=CC[C@]2(C)CN(c3cc(F)cc(-c4nnn(CCN5CCS(=O)(=O)CC5)n4)c3)CC=C12 [Example B8] | < 0.5
9 | CC1(C)C(c2ccc(C(=O)O)cc2)=CC[C@]2(C)CN(c3ccc(C(=O)O)cc3)CC=C12 [Example B10, (S)-4,4′-(5,5,8a-trimethyl-3,5,8,8a-tetrahydroisoquinoline-2,6(1H)-diyl)dibenzoic acid] | > 3
10 | CC1(C)C(c2ccc(C(=O)O)cc2)=CC[C@]2(C)CN(c3ncccn3)CC=C12 [Example B11] | > 3
11 | CC1(C)C(c2ccc(C(=O)O)cc2)=CC[C@]2(C)CN(c3ncc(C(=O)O)s3)CC=C12 [Example B12] | > 3
12 | CCOC(=O)c1cnc(N2CC=C3C(C)(C)C(c4ccc(C(=O)O)cc4)=CC[C@]3(C)C2)s1 [Example B14] | 0.5 to 3
13 | CC1(C)C(c2ccc(C(=O)O)cc2)=CC[C@]2(C)CN(c3cc(C(=O)O)cc([N+](=O)[O-])c3)CC=C12 [Example B15] | > 3
14 | CC1(C)C(c2ccc(C(=O)O)cc2)=CC[C@]2(C)CN(c3ccc(C(N)=O)cc3)CC=C12 [Example B17] | > 3
15 | CC1(C)C(c2ccc(C(=O)O)cc2)=CC[C@]2(C)CN(C(=O)C(=O)N3CCC[C@H]3C(=O)NCCN3CCS(=O)(=O)CC3)CC[C@@H]12 [Example C1, 4-((4aS,8aS)-2-(2-((S)-2-((2-(1,1-dioxidothiomorpholino)ethyl)carbamoyl)pyrrolidin-1-yl)-2-oxoacetyl)-5,5,8a-trimethyl-1,2,3,4,4a,5,8,8a-octahydroisoquinolin-6-yl)benzoic acid] | > 3
16 | CC1(C)C(c2ccc(C(=O)O)cc2)=CC[C@]2(C)CN(C(=O)C(=O)N3CCC[C@H]3C(=O)NCCCN3CCS(=O)(=O)CC3)CC[C@@H]12 [Example C2, 4-((4aS,8aS)-2-(2-((S)-2-((3-(1,1-dioxidothiomorpholino)propyl)carbamoyl)pyrrolidin-1-yl)-2-oxoacetyl)-5,5,8a-trimethyl-1,2,3,4,4a,5,8,8a-octahydroisoquinolin-6-yl)benzoic acid] | > 3

Same assay, conditions: Renilla, NL43, read-out: 10% FBS EC50, 10% FBS, numeric values

Row | SMILES | EC50 [µM]
17 | CC1(C)C(c2ccc(C(=O)O)cc2)=CC[C@]2(C)CN(C(=O)c3ccccc3-c3nc4ccccc4o3)CC=C12 [Example A325] | 0.235
18 | Cc1ccc2nc(-c3ccccc3C(=O)N3CC=C4C(C)(C)C(c5ccc(C(=O)O)cc5)=CC[C@]4(C)C3)oc2c1 [Example A326] | 0.257
19 | CC1(C)C(c2ccc(C(=O)O)cc2)=CC[C@]2(C)CN(c3cc(-c4nnn(CCN5CCS(=O)(=O)CC5)n4)cc([N+](=O)[O-])c3)CC=C12 [Example B1, (S)-4-(2-(3-(2-(2-(1,1-dioxidothiomorpholino)ethyl)-2H-tetrazol-5-yl)-5-nitrophenyl)-5,5,8a-trimethyl-1,2,3,5,8,8a-hexahydroisoquinolin-6-yl)benzoic acid] | 0.024
20 | CC1(C)C(c2ccc(C(=O)O)cc2)=CC[C@]2(C)CN(c3cc(-c4nnnn4CCN4CCS(=O)(=O)CC4)cc([N+](=O)[O-])c3)CC=C12 [Example B2, (S)-4-(2-(3-(1-(2-(1,1-dioxidothiomorpholino)ethyl)-1H-tetrazol-5-yl)-5-nitrophenyl)-5,5,8a-trimethyl-1,2,3,5,8,8a-hexahydroisoquinolin-6-yl)benzoic acid] | 0.76
21 | CC1(C)C(c2ccc(C(=O)O)cc2)=CC[C@]2(C)CN(c3cc(NC(=O)CCN4CCS(=O)(=O)CC4)cc(-c4nnn(CCN5CCS(=O)(=O)CC5)n4)c3)CC=C12 [Example B4, (S)-4-(2-(3-(2-(2-(1,1-dioxidothiomorpholino)ethyl)-2H-tetrazol-5-yl)-5-(3-(1,1-dioxidothiomorpholino)propanamido)phenyl)-5,5,8a-trimethyl-1,2,3,5,8,8a-hexahydroisoquinolin-6-yl)benzoic acid] | 1.7
22 | CC1(C)C(c2ccc(C(=O)O)cc2)=CC[C@]2(C)CN(c3ccccc3-c3nnn(CCN4CCS(=O)(=O)CC4)n3)CC=C12 [Example B6] | 0.045
23 | CC1(C)C(c2ccc(C(=O)O)cc2)=CC[C@]2(C)CN(c3cc(O)cc(-c4nnn(CCN5CCS(=O)(=O)CC5)n4)c3)CC=C12 [Example B9] | 1.17
24 | COc1ccnc(N2CC=C3C(C)(C)C(c4ccc(C(=O)O)cc4)=CC[C@]3(C)C2)n1 [Example B13] | 2.7
25 | CC1(C)C(c2ccc(C(=O)O)cc2)=CC[C@]2(C)CN(c3nc(C(=O)O)cs3)CC=C12 [Example B16] | 1.48
26 | CC1(C)C(c2ccc(C(=O)O)cc2)=CC[C@]2(C)CN(C3CCC(CN)(c4ccccc4)CC3)CC=C12 (stereo partly drawn) [Example C3, (S)-4-(2-(4-(aminomethyl)-4-phenylcyclohexyl)-5,5,8a-trimethyl-1,2,3,5,8,8a-hexahydroisoquinolin-6-yl)benzoic acid] | 0.15
27 | CC1(C)C(c2ccc(C(=O)O)cc2)=CC[C@]2(C)CN(C3CCC(CN(CCN4CCS(=O)(=O)CC4)CCN4CCS(=O)(=O)CC4)(c4ccccc4)CC3)CC=C12 (stereo partly drawn) [Example C4, (S)-4-(2-(4-((bis(2-(1,1-dioxidothiomorpholino)ethyl)amino)methyl)-4-phenylcyclohexyl)-5,5,8a-trimethyl-1,2,3,5,8,8a-hexahydroisoquinolin-6-yl)benzoic acid] | > 3
